Read-outs that look alike come from different tables or passages of the source.
Experiments:
Settings in all cases: PKIS2 primary screening
endogenous TFE3 = assay: TFE3 nuclear translocation, immunocytochemistry high-content imaging; assay type: cell-based
endogenous TFEB = assay: TFEB nuclear translocation, immunocytochemistry high-content imaging; assay type: cell-based
SH-SY5Y cells [1] = assay: AK (adenylate kinase) release ToxiLight cytotoxicity assay; also: reference of the scale not given here
SH-SY5Y cells [2] = assay: Nuclear count from microscopy images (cellular growth and toxicity); also: reference of the scale not given here
SH-SY5Y cells [3] = system: SH-SY5Y cells; also: reference of the scale not given here

Compound | TFE3 % (endogenous TFE3) [%] | TFEB % (endogenous TFEB) [%] | AK (SH-SY5Y cells [1]) | Nuclear Count (SH-SY5Y cells [2]) | DQ Intensity (SH-SY5Y cells [3]) | DQ Spot (SH-SY5Y cells [3]) | DQ Intensity (SH-SY5Y cells [3]; DQ Red BSA intensity) | DQ Spot (SH-SY5Y cells [3]; DQ Red BSA spot count)
CC(=O)N1CCN(c2ccc(Nc3nccc(-c4sc(C(C)C)nc4-c4cccc(NS(=O)(=O)c5cccc(Cl)c5)c4)n3)cn2)CC1 [UNC10225481A] | 9.55 | 3.72 | 73.54 | 128.41 | 100.90 | 115.22 |  | 
Cc1ccc(NC(=O)c2cccc(N3CCCCC3)c2)cc1-c1ccc(C(=O)NCC2CC2)cc1 [UNC10225021A] | 7.57 | 6.38 | 68.90 | 118.95 | 102.66 | 94.61 |  | 
CS(=O)(=O)CCNCc1nc(-c2ccc3ncnc(Nc4ccc5c(cnn5Cc5ccccc5)c4)c3c2)cs1.Cl.Cl [UNC10225115A] | 17.35 | 3.62 | 99.64 | 105.59 |  |  | 104.52 | 112.81
CC(C)(C)c1ccc(-n2cnc3c(N)ncnc32)cc1 [UNC10225367A] | 12.53 | 8.78 | 79.86 | 71.05 | 128.98 | 104.53 |  | 
O=c1cc(N2CCOCC2)nc2n(Cc3cccc(Cl)c3)ccn12 [UNC10225131A] | 11.28 | 5.81 | 96.90 | 104.22 | 103.05 | 113.71 |  | 
NS(=O)(=O)c1cccc(-c2ccc3nccc(-c4cccc(S(N)(=O)=O)c4)c3c2)c1 [UNC10225379A] | 17.04 | 4.73 | 131.37 | 79.09 |  |  | 88.37 | 88.03
C[C@@H](Oc1cc(-n2cnc3cc(-c4ccncc4)ccc32)sc1C(N)=O)c1ccccc1Cl [UNC10225262A] | 14.34 | 9.74 | 125.08 | 39.15 | 208.10 | 109.28 |  | 
Cl.Cl.Cl.Fc1ccc(-c2ncn(C3CCNCC3)c2-c2ccnc(Nc3ccccc3)n2)cc1 [UNC10225420A] | 15.52 | 8.15 | 105.24 | 78.56 | 95.71 | 100.38 |  | 
COc1ccc(Nc2nccc(-c3cccc(NC(=O)c4cc5cc(F)ccc5[nH]4)c3)n2)cc1 [GSK1229782] | 14.29 | 2.71 | 91.24 | 89.95 |  |  | 93.16 | 110.99
Nc1ncc(-c2cccnc2)c2scc(-c3ccc4c(c3)CCN4C(=O)Cc3ccccc3)c12 [UNC10225369A] | 19.63 | 3.58 | 64.72 | 102.35 |  |  | 84.54 | 86.78
COc1ccc(Nc2nccc(N3CCC(NC(=O)C(C)c4ccc(Cl)cc4)C3)n2)cc1 (stereo not drawn) [GSK1379735] | 11.71 | 5.13 | 70.53 | 119.80 |  |  | 99.92 | 94.04
Cn1cc(-c2ccc3c(c2)CCN3C(=O)Cc2cc(F)cc(C(F)(F)F)c2)c2c(N)ncnc21 [UNC10225478A] | 18.35 | 5.80 | 72.42 | 95.63 | 103.20 | 103.08 |  | 
COc1cccc(-n2cnc3c(N)ncnc32)c1 [UNC10225454A] | 8.30 | 7.17 | 83.60 | 128.34 | 95.23 | 104.69 |  | 
COc1ccc(Nc2nccc(N3CCC(NC(=O)C(C)c4ccc(Cl)cc4)CC3)n2)cc1 (stereo not drawn) [GSK1379812] | 16.53 | 5.92 | 91.65 | 97.15 |  |  | 134.37 | 89.99
O=C(Nc1ccc2c(c1)OCO2)NC1CCN(c2ccnc(Nc3ccc(F)cc3)n2)C1 (stereo not drawn) [GSK1379724] | 7.39 | 3.86 | 104.22 | 89.10 |  |  | 90.09 | 99.32
Cc1c(O)cccc1Nc1ccnc2ccc(C(F)(F)F)cc12.Cl [UNC10225099A] | 5.56 | 9.28 | 102.37 | 127.64 |  |  | 122.68 | 95.32
COc1ccc2cc(-c3nc(-c4ccccc4C(C)C)[nH]c3-c3ccncc3)ccc2c1 [UNC10225291A] | 9.24 | 11.56 | 85.35 | 105.82 |  |  | 102.38 | 102.77
FC(F)(F)c1cc(Br)cc(Nc2nccc(-c3cnn4ncccc34)n2)c1 [UNC10225191A] | 14.10 | 6.52 | 83.14 | 72.92 | 110.85 | 116.61 |  | 
Nc1nccc(-c2ccc3c(N)n[nH]c3c2)n1 [GSK1034945] | 14.89 | 3.25 | 117.83 | 141.53 |  |  | 84.11 | 101.09
O=C(NCCNc1ccnc(Nc2ccc(F)cc2)n1)Nc1ccccc1F [GSK1379880] | 7.81 | 3.19 | 82.91 | 133.27 |  |  | 104.78 | 97.82
COc1ccc(CNC(=O)NC2CCN(c3ccnc(Nc4ccc(OC)cc4)n3)C2)cc1 (stereo not drawn) [GSK1379727] | 11.01 | 4.74 | 96.08 | 118.16 |  |  | 79.60 | 81.20
Nc1nc(-c2ccc3c(N)n[nH]c3c2)cc(N2CCCC2)n1 [GSK2227430] | 14.08 | 3.47 | 104.62 | 85.02 |  |  | 87.93 | 104.79
Cc1nnc(-c2ccc(C)c(-c3ccc(C(=O)Nc4ccc(NS(C)(=O)=O)cc4)cc3)c2)o1 [UNC10225285A] | 14.74 | 4.26 | 85.18 | 90.38 | 105.08 | 99.25 |  | 
Cc1ccc(NC(=O)Nc2ccccc2F)cc1-c1ccc(C(=O)Nc2ccncc2)cc1 [UNC10225398A] | 17.53 | 7.18 | 135.60 | 104.03 | 90.99 | 98.29 |  | 
COc1ccc(Nc2nccc(N3CCC(NC(=O)Nc4cccc(C(C)=O)c4)C3)n2)cc1 (stereo not drawn) [GSK1379731] | 14.27 | 9.04 | 78.89 | 122.85 |  |  | 109.14 | 92.48
CCOC(=O)N1CCC(n2cnc(-c3ccc(F)cc3)c2-c2ccnc(N)n2)CC1 [UNC10225132A] | 8.29 | 10.30 | 115.58 | 129.88 | 90.15 | 96.37 |  | 
NCC(NC(=O)c1cc(-c2cn[nH]c2)c(-c2ccnc3[nH]ccc23)s1)c1ccccc1.O=C(O)C(F)(F)F.O=C(O)C(F)(F)F (stereo not drawn) [UNC10225196A] | 18.18 | 5.85 | 105.21 | 81.98 |  |  | 69.88 | 101.21

Source: paper PMC9851200, “Multiparameter phenotypic screening for endogenous TFEB and TFE3 translocation identifies novel chemical series modulating lysosome function” (Autophagy, 2022)
